In patent US9555022B2, “Substituted triazolopyridines” (Bayer Intellectual Property GmbH, priority 2010, dated 2017) one finds IC50 data, which are given here for 20 compounds.

For this experiment, the target named is human full length recombinant Mps-1 kinase (Homo sapiens (Human), UniProt P33981). Nature of the experiment: Mps-1 Kinase Assay (TR-FRET). The format is biochemical. Particulars: 10 μM ATP, 1 μM biotinylated peptide substrate, 60 min at 22° C., read-out: Mps-1 Inhibition, IC50 in M. The method, boiled down:
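GST-Mps-1 (full length, N-term tag) ~1 nM final, linear-range adjusted per lot; biotinylated peptide substrate. Detection: Eu-anti-pSer/Thr donor → SA-XLent acceptor TR-FRET, 1 h, 22° C. Inhibition of kinase activity.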
(TR-FRET usually uses a lanthanide donor and a delayed reading to cut background.)

Chain of human full length recombinant Mps-1 kinase (P33981 whole entry): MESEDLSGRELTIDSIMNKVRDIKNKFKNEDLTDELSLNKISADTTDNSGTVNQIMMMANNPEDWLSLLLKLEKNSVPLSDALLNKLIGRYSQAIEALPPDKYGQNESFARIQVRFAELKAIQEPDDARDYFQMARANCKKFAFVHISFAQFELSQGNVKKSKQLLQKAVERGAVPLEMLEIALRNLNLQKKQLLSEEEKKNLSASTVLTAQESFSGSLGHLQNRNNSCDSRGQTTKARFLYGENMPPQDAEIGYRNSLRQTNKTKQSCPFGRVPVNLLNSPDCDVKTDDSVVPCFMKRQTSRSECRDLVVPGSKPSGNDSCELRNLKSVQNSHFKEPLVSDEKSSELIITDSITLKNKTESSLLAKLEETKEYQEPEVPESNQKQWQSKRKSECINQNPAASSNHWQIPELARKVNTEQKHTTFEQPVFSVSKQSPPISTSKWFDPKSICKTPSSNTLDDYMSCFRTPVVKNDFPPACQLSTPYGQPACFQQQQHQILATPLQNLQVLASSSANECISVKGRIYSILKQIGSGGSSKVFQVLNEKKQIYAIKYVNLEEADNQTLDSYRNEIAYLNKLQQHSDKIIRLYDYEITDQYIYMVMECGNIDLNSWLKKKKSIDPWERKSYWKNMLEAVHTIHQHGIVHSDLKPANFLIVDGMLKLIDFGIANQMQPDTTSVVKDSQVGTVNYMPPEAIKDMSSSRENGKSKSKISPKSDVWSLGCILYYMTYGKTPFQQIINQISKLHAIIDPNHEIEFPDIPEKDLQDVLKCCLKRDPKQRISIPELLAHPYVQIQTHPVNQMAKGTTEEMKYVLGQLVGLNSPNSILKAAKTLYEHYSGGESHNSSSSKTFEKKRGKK

With `COc1cc(CN2CCN(C)CC2)ccc1Nc1nc2ccc(-c3ccc(C(=O)NCc4ccc(F)cc4)cc3)cn2n1` [Example 04.24, N-(4-fluorobenzyl)-4-[2-({2-methoxy-4-[(4-methylpiperazin-1-yl)methyl]phenyl}amino)[,2]triazolo[1,5-a]pyridin-6-yl]benzamide], the IC50 (as a rule, the point on the concentration scale where inhibition reaches its midpoint) was at most 1 nM. The value for `COc1cc(CN2CCOCC2)ccc1Nc1nc2ccc(-c3ccc(C(=O)NCc4ccc(F)cc4)cc3)cn2n1` [Example 04.25, N-(4-fluorobenzyl)-4-(2-{[2-methoxy-4-(morpholin-4-ylmethyl)phenyl]amino}[,2]-triazolo[1,5-a]pyridin-6-yl)benzamide] was at most 1 nM. The value for `COc1cc(OC2CCN(C)CC2)ccc1Nc1nc2ccc(-c3ccc(C(=O)NCc4ccc(F)cc4)cc3)cn2n1` [Example 04.26, N-(4-fluorobenzyl)-4-[2-({2-methoxy-4-[(1-methylpiperidin-4-yl)oxy]phenyl}amino)[,2]triazolo[1,5-a]pyridin-6-yl]benzamide] was at most 1 nM; that for `CSc1cc(OC2CCN(C)CC2)ccc1Nc1nc2ccc(-c3ccc(C(=O)NCc4ccc(F)cc4)cc3)cn2n1` [Example 04.27, N-(4-fluorobenzyl)-4-[2-({4-[(1-methylpiperidin-4-yl)oxy]-2-(methylsulfanyl)phenyl}amino)[,2]triazolo[1,5-a]pyridin-6-yl]benzamide] was at most 1 nM. The value for `Cc1cc(C(=O)N2CC3(COC3)C2)ccc1Nc1nc2ccc(-c3ccc(C(=O)NCc4ccc(F)cc4)cc3)cn2n1` [Example 04.28, N-(4-fluorobenzyl)-4-(2-{[2-methyl-4-(2-oxa-6-azaspiro[3.3]hept-6-ylcarbonyl)phenyl]amino}[,2]triazolo[1,5-a]pyridin-6-yl)benzamide] was at most 1 nM; that for `Cc1cc(C(=O)N2CCOCC2)ccc1Nc1nc2ccc(-c3ccc(C(=O)NCc4ccc(F)cc4)cc3)cn2n1` [Example 04.29, N-(4-fluorobenzyl)-4-(2-{[2-methyl-4-(morpholin-4-ylcarbonyl)phenyl]amino}[,2]-triazolo[1,5-a]pyridin-6-yl)benzamide] was at most 1 nM; that for `O=C(NCc1ccc(F)cc1)c1ccc(-c2ccc3nc(Nc4ccc(C(=O)N5CC6(COC6)C5)cc4OC(F)(F)F)nn3c2)cc1` [Example 04.30, N-(4-fluorobenzyl)-4-(2-{[4-(2-oxa-6-azaspiro[3.3]hept-6-ylcarbonyl)-2-(trifluoromethoxy)phenyl]amino}[,2]-triazolo[1,5-a]pyridin-6-yl)benzamide] was at most 1 nM. For `O=C(NCc1ccc(F)cc1)c1ccc(-c2ccc3nc(Nc4ccc(C(=O)N5CCOCC5)cc4OC(F)(F)F)nn3c2)cc1` [Example 04.31, N-(4-fluorobenzyl)-4-(2-{[4-(morpholin-4-ylcarbonyl)-2-(trifluoromethoxy)phenyl]amino}[,2]-triazolo[1,5-a]pyridin-6-yl)benzamide], the IC50 is at most 1 nM. The value for `COc1ccc(C(=O)N2CCOCC2)cc1Nc1nc2ccc(-c3ccc(C(=O)NCc4ccc(F)cc4)cc3)cn2n1` [Example 04.32, N-(4-fluorobenzyl)-4-(2-{[2-methoxy-5-(morpholin-4-ylcarbonyl)phenyl]amino}[,2]-triazolo[1,5-a]pyridin-6-yl)benzamide] was at most 1 nM; that for `Cc1nc(N2CCOCC2)ccc1Nc1nc2ccc(-c3ccc(C(=O)NCc4ccc(F)cc4)cc3)cn2n1` [Example 04.33, N-(4-fluorobenzyl)-4-(2-{[2-methyl-6-(morpholin-4-yl)pyridin-3-yl]amino}[,2]triazolo[1,5-a]pyridin-6-yl)benzamide] was at most 1 nM.

As for `Cc1nc(N2CCCC2)ccc1Nc1nc2ccc(-c3ccc(C(=O)NCc4ccc(F)cc4)cc3)cn2n1` [Example 04.34, N-(4-fluorobenzyl)-4-(2-{[2-methyl-6-(pyrrolidin-1-yl)pyridin-3-yl]amino}[,2]triazolo[1,5-a]pyridin-6-yl)benzamide], the half-inhibitory concentration (IC50) was at most 1 nM. The value for `COc1cc(C(=O)N2CC(F)C2)ccc1Nc1nc2ccc(-c3ccc(C(=O)NCc4ccc(F)cc4)cc3)cn2n1` [Example 04.35, 4-[2-({4-[(3-fluoroazetidin-1-yl)carbonyl]-2-methoxyphenyl}amino)[,2]triazolo[1,5-a]pyridin-6-yl]-N-(4-fluorobenzyl)benzamide] was at most 1 nM; that for `COc1cc(C(=O)N2CCOCC2)ccc1Nc1nc2ccc(-c3ccc(C(=O)NCc4ccc(Cl)cc4)cc3)cn2n1` [Example 05.01, N-(4-chlorobenzyl)-4-(2-{[2-methoxy-4-(morpholin-4-ylcarbonyl)phenyl]amino}[,2]-triazolo[1,5-a]pyridin-6-yl)benzamide] was at most 1 nM; that for `COc1cc(C(=O)N2CCOCC2)ccc1Nc1nc2ccc(-c3ccc(C(=O)NCc4ccc(C)cc4)cc3)cn2n1` [Example 05.02, 4-(2-{[2-methoxy-4-(morpholin-4-ylcarbonyl)phenyl]amino}[,2]-triazolo[1,5-a]pyridin-6-yl)-N-(4-methylbenzyl)benzamide] was at most 1 nM.

For `COc1cc(C(=O)N2CCOCC2)ccc1Nc1nc2ccc(-c3ccc(C(=O)NCc4ccc(F)cc4)c(F)c3)cn2n1` [Example 06.01, 2-fluoro-N-(4-fluorobenzyl)-4-(2-{[2-methoxy-4-(morpholin-4-ylcarbonyl)phenyl]amino}[,2]-triazolo[1,5-a]pyridin-6-yl)benzamide], the IC50 was at most 1 nM. The value for `COc1cc(CN2CCOCC2)ccc1Nc1nc2ccc(-c3ccc(C(=O)NCc4ccc(F)cc4)c(F)c3)cn2n1` [Example 06.02, 2-fluoro-N-(4-fluorobenzyl)-4-(2-{[2-methoxy-4-(morpholin-4-ylmethyl)phenyl]amino}[,2]-triazolo[1,5-a]pyridin-6-yl)benzamide] was at most 1 nM; that for `COc1cc(C(=O)N2CCOCC2)ccc1Nc1nc2ccc(-c3ccc(C(=O)NCc4ccc(F)cc4)c(C)c3)cn2n1` [Example 07.01, N-(4-fluorobenzyl)-4-(2-{[2-methoxy-4-(morpholin-4-ylcarbonyl)phenyl]amino}[,2]-triazolo[1,5-a]pyridin-6-yl)-2-methylbenzamide] was at most 1 nM. The value for `COc1cc(N2CCOC2=O)ccc1Nc1nc2ccc(-c3ccc(C(=O)NCc4ccc(F)cc4)c(C)c3)cn2n1` [Example 07.02, N-(4-fluorobenzyl)-4-(2-{[2-methoxy-4-(2-oxo-1,3-oxazolidin-3-yl)phenyl]amino}[,2]-triazolo[1,5-a]pyridin-6-yl)-2-methylbenzamide] was 1.1 nM; that for `COc1cc(C(=O)N2CCOCC2)ccc1Nc1nc2ccc(-c3ccc(C(=O)NCc4ccc(F)cc4)c(Cl)c3)cn2n1` [Example 08.01, 2-chloro-N-(4-fluorobenzyl)-4-(2-{[2-methoxy-4-(morpholin-4-ylcarbonyl)phenyl]amino}[,2]-triazolo[1,5-a]pyridin-6-yl)benzamide] was at most 1 nM. The value for `COc1cc(C(=O)N2CCOCC2)ccc1Nc1nc2ccc(-c3ccc(C(=O)NCc4ccc(F)cc4)c(OC)c3)cn2n1` [Example 09.01, N-(4-fluorobenzyl)-2-methoxy-4-(2-{[2-methoxy-4-(morpholin-4-ylcarbonyl)phenyl]amino}[,2]-triazolo[1,5-a]pyridin-6-yl)benzamide] was at most 1 nM.
